In patent publication US7056947B2, “Aza-peptide epoxides” (Georgia Tech Research Corp., priority 2002, dated 2006):

Columns and labels:
Type in all cases: biochemical
cathepsin B = cathepsin B (Homo sapiens, UniProt P07858); test: Inhibition of cathepsin B, incubation method; details: second-order rate constant, NI = no inhibition; for kinact/KI: pH 6, read-out: kobs/[I] cathepsin B
Description: (§1) The release of 7-amino-4-methylcoumarin was monitored (λex=360 nm, λem=465 nm) using a Tecan Spectra Fluor microplate reader. Pseudo first-order inactivation rate constants were obtained from plots of In vt/vo versus time.

papain = target: T1, papain (Carica papaya, UniProt P00784); test: Inhibition of papain, incubation method; details: second-order rate constant, NI = no inhibition; for kinact/KI: pH 7.5, read-out: kobs/[I] papain
T1 sequence (P00784 134-345): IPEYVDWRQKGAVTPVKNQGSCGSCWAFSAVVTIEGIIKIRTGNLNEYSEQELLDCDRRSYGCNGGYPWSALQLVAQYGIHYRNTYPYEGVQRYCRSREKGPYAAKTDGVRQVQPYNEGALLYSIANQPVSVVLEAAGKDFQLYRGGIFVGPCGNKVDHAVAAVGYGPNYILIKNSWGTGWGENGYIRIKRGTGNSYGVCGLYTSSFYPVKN
Protocol: as §1
The incubation method was also used for papain. The inhibition incubation buffer for papain was 50 mM Hepes buffer at pH 7.5, containing 2.5 mM DTT and 2.5 mM EDTA. The assay used the substrate Z-Phe-Arg-pNA (53.7 μM) in the same buffer. The approximate concentration of papain added to the incubation buffer was 0.29 mg/mL. The release of p-nitroanilide was monitored at 405 nm with a Molecular Devices Thermomax microplate reader.

caspase-1 = target: T2, caspase-1 (Homo sapiens, UniProt P29466, D381E); test: Caspase-1 progress curve assay; details: D381E variant, substrate Ac-YVAD-AMC, 30° C.
T2 construct: His tag (N); made in house; host or cells: E. coli
T2 sequence (P29466 120-297 limits assumed): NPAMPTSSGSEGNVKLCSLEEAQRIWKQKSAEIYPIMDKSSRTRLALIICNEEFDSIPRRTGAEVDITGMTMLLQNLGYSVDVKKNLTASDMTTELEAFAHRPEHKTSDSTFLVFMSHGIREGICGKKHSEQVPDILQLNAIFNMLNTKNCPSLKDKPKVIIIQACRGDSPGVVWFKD
T2 sequence (P29466 317-404 D381E limits assumed): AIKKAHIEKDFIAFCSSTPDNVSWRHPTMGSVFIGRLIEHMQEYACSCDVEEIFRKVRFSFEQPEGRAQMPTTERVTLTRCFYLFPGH
Description: Caspase-1. The preparation of the autolytically stable caspase-1 variant used in these studies has been described previously. Briefly, the variant contains a mutation (D381E) which renders it resistant to autolytic inactivation, but has no detectable affect on enzyme activity as compared to the naturally occurring enzyme. The enzyme variant was expressed in E. coli, purified first by immobilized metal chromatography via the N-terminal N-His tag, treated with excess oxidized glutathione to stabilize the reactive thiolate, and then re-purified by size-exclusion chromatography.
Inhibition data was measured using the progress curve assay method. Serial dilutions of each compound were prepared using an initial 8-fold dilution of a DMSO stock into HGE (100 mM HEPES,20% glycerol v/v, 0.5 mM EDTA), followed by seven serial two-fold dilutions into HGE and 12.5% DMSO, thus maintaining constant DMSO through the dilution series. Ten μL of diluted stocks or of vehicle (HGE and 12.5% DMSO) were placed in triplicate onto a 96-well microtiter plate, allowing several compounds to be tested on each plate. The plate was covered to minimize evaporation, and the plate was pre-warmed to 30° C. for 20 minutes. Enzyme was diluted into 10.0 mL of assay buffer (HGE, 5 mM DTT, plus 15 μM Ac-YVAD-AMC, 2 nM approximate final enzyme concentration), and this activated reaction mixture was added to the plate at 90 μL/well. Progress of substrate hydrolysis was monitored for 900 s in a LabSystems (Needham, Mass.) Fluoroskan Ascent fluorescent plate-reader using 385 and 460 nm excitation and emission filters, respectively, and a photomultiplier gain setting of 10. Triplicate curves were averaged and fit by nonlinear regression to the equation for irreversible inactivation shown below.
[formula] where F0 was routinely fixed to zero, since fluorescence values were always adjusted to an origin of 0. The second order rate constant kon (M^−1s^−1) was obtained from the slopes by linear regression, and errors represent the standard deviation of the regression slope.

caspase-3 = target: T3, caspase-3 (Homo sapiens, UniProt P42574); test: Caspase-3 progress curve assay; details: substrate Z-DEVD-AFC; NI = no inhibition
T3 construct: made in house; host or cells: E. coli
T3 sequence (P42574 29-175 limits assumed): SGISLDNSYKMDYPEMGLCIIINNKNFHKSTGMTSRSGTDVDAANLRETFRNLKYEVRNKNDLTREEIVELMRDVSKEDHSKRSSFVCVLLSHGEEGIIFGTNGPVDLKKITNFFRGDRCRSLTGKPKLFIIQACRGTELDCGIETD
T3 sequence (P42574 176-277 limits assumed): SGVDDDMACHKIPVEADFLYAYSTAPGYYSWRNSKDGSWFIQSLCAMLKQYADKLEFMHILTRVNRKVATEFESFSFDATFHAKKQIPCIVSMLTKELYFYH
Outline: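 E. coli-expressed caspases, pre-activated 10 min at 37° C with 10 mM DTT, were added to 100 μM Z-DEVD-AFC plus inhibitor in 50 mM Hepes, 100 mM NaCl, 0.1% CHAPS, 10% sucrose, 10 mM DTT, pH 7.4. AFC fluorescence (ex 400/em 505 nm) was followed; inhibition rates and equilibria came from progress curves.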

Row | Structure (SMILES) | kinact/KI (cathepsin B) [M⁻¹ s⁻¹] | kinact/KI (papain) [M⁻¹ s⁻¹] | kobs/[I] papain (papain) [M⁻¹ s⁻¹] | other results
1 | CCOC(=O)[C@@H]1O[C@H]1C(=O)N(CCC(N)=O)NC(=O)[C@H](Cc1ccccc1)NC(=O)[C@H](CC(C)C)NC(=O)OCc1ccccc1 (relative stereo) [Cbz-Leu-Phe-AGln-trans-EP-COOEt, trans-3-(N^2-(N-Benzyloxycarbonylleucylphenylalanyl)-N^1-carbamoylethylhydrazinocarbonyl)oxirane-2-carboxylic Acid Ethyl Ester] | 1.3 | 0.9 | – | –
2 | CC(C)[C@H](NC(=O)CCc1ccccc1)C(=O)N[C@@H](C)C(=O)NN(CC(=O)O)C(=O)[C@H]1O[C@@H]1C(=O)OCc1ccccc1 [23d (S,S)] | – | – | – | kobs/[I] cathepsin B (cathepsin B): 0.81 M⁻¹ s⁻¹; k2 caspase-1 (caspase-1): 52140 ± 5295 M⁻¹ s⁻¹; k2 caspase-3 (caspase-3): 1470 ± 40 M⁻¹ s⁻¹
3 | CCOC(=O)[C@@H]1O[C@H]1C(=O)N(CC(N)=O)NC(=O)[C@H](C)NC(=O)[C@H](C)NC(=O)OCc1ccccc1 (relative stereo) [Cbz-Ala-Ala-AAsn-trans-EP-COOEt, trans-3-(N^2-(N-Benzyloxycarbonylalanylalanyl)-N^1-carbamoylmethylhydrazinocarbonyl)oxirane-2-carboxylic Acid Ethyl Ester] | 1.27 | – | – | –
4 | CCCCC(NC(=O)OC(C)(C)C)C(=O)NN(CCc1ccccc1)C(=O)C1OC1CCc1ccccc1 (stereo not drawn) [Boc-Nle-AHph-trans-EP-CH2CH2Ph, Boc-Nle-AHph-(trans)-EP-CH2CH2Ph] | – | – | 0.5 | –
5 | CCOC(=O)[C@@H]1O[C@H]1C(=O)N(CC(C)C)NC(=O)[C@H](Cc1ccccc1)NC(=O)OCc1ccccc1 (relative stereo) [Cbz-Phe-ALeu-trans-EP-COOEt, trans-3-(N^2-(N-3-Benzyloxyphenylalanyl)-N^1-isobutylhydrazinocarbonyl)oxirane-2-carboxylic Acid Ethyl Ester] | – | – | 0.91 | kobs/[I] cathepsin B (cathepsin B): 3.61 M⁻¹ s⁻¹
6 | O=C(N[C@@H](Cc1ccccc1)C(=O)NN(Cc1ccccc1)C(=O)[C@@H]1O[C@H]1CCc1ccccc1)OCc1ccccc1 (relative stereo) [Cbz-Phe-APhe-trans-EP-CH2CH2Ph, trans-3-(N^2-(N-3-Benzyloxyphenylalanyl)-N^1-benzylhydrazinocarbonyl)-2-(2-phenylethyl)oxirane] | – | – | 0.5 | –
7 | CCC(NC(=O)OC(C)(C)C)C(=O)NN(CCc1ccccc1)C(=O)[C@@H]1O[C@H]1CCc1ccccc1 (relative stereo) [Boc-Abu-AHph-trans-EP-CH2CH2Ph, trans-3-(N^2-(N-tert-Butoxycarbonyl-α-aminobutanoyl)-N^1-phenylethylhydrazinocarbonyl)-2-(2-phenylethyl)oxirane] | – | – | 0.2 | –
8 | CC(C)CN(NC(=O)[C@H](Cc1ccccc1)NC(=O)OCc1ccccc1)C(=O)[C@@H]1O[C@H]1CCc1ccccc1 (relative stereo) [Cbz-Phe-ALeu-trans-EP-CH2CH2Ph] | – | – | 0.7 | –
9 | C[C@H](NC(=O)OCc1ccccc1)C(=O)N[C@@H](C)C(=O)NN(CC(N)=O)C(=O)[C@@H]1O[C@H]1C(=O)OCc1ccccc1 (relative stereo) [Cbz-Ala-Ala-AAsn-trans-EP-COOCH2Ph, trans-3-(N^2-(N-Benzyloxycarbonylalanylalanyl)-N^1-carbamoylmethylhydrazinocarbonyl)oxirane-2-carboxylic Acid Benzyl Ester] | 1.09 | – | – | –
10 | CCOC(=O)CN(NC(=O)[C@H](C)NC(=O)[C@H](C)NC(=O)OCc1ccccc1)C(=O)[C@@H]1O[C@H]1C(=O)OCC (relative stereo) [Cbz-Ala-Ala-NHN(CH2COOEt)-trans-EP-COOEt, trans-3-(N^2-(N-Benzyloxycarbonylalanylalanyl)-N^1-ethoxycarbonylmethylhydrazinocarbonyl)oxirane-2-carboxylic Acid Ethyl Ester] | 2.53 | 8.17 | – | –
11 | CCOC(=O)[C@@H]1O[C@H]1C(=O)N(CC(C)C)NC(=O)C(Cc1ccc2ccccc2c1)NC(=O)CCC(=O)O (relative stereo) [Suc-Np2-ALeu-trans-EP-COOEt, trans-3-(N^2-(N-Succinyl-2-naphthylalanyl)-N^1-isobutylhydrazinocarbonyl)oxirane-2-carboxylic Acid Ethyl Ester] | – | – | 1.39 | kobs/[I] cathepsin B (cathepsin B): 0.8 M⁻¹ s⁻¹
12 | CCOC(=O)[C@H]1O[C@@H]1C(=O)N(CC(=O)O)NC(=O)[C@@H](NC(=O)[C@H](CCC(=O)O)NC(=O)[C@H](CC(C)C)NC(=O)OCc1ccccc1)[C@@H](C)O [26c (S,S), (2S,3S)-3-(N^2-(N-Benzyloxycarbonylleucylglutamylthreonyl)-N^1-carboxymethylhydrazinocarbonyl)oxirane-2-carboxylic Acid Ethyl Ester] | – | 0.47 | – | k2 caspase-1 (caspase-1): 25730 M⁻¹ s⁻¹; k2 caspase-3 (caspase-3): 3210 ± 315 M⁻¹ s⁻¹
13 | CC(C)[C@H](NC(=O)CCc1ccccc1)C(=O)N[C@@H](C)C(=O)NN(CC(=O)O)C(=O)[C@@H]1O[C@H]1C(=O)OCc1ccccc1 (relative stereo) [23d (trans), trans-3-(N^2-(N-3-Phenylpropanoylvalylalanyl)-N^1-carboxylmethylhydrazinocarbonyl)oxirane-2-carboxylic Acid Benzyl Ester] | < 10 | < 10 | – | k2 caspase-1 (caspase-1): 18070 ± 2625 M⁻¹ s⁻¹; k2 caspase-3 (caspase-3): 680 ± 140 M⁻¹ s⁻¹
14 | CCOC(=O)[C@@H]1O[C@H]1C(=O)N(CC(=O)O)NC(=O)[C@@H](NC(=O)[C@H](CCC(=O)O)NC(=O)[C@H](CC(C)C)NC(=O)OCc1ccccc1)[C@@H](C)O [26c (R,R), (2R,3R)-3-(N^2-(N-Benzyloxycarbonylleucylglutamylthreonyl)-N^1-carboxymethylhydrazinocarbonyl)oxirane-2-carboxylic Acid Ethyl Ester] | – | 0.24 | – | k2 caspase-1 (caspase-1): 19570 M⁻¹ s⁻¹; k2 caspase-3 (caspase-3): 3250 ± 160 M⁻¹ s⁻¹
15 | CCOC(=O)[C@@H]1O[C@H]1C(=O)N(NCc1ccccc1)C(=O)OCc1ccccc1 (relative stereo) [Cbz-APhe-trans-EP-COOEt, trans-3-(N^2-Benzyl-N^1-benzyloxycarbonylhydrazinocarbonyl)oxirane-2-carboxylic Acid Ethyl Ester] | 1.8 | 8.5 | – | –
16 | CCOC(=O)[C@H]1O[C@@H]1C(=O)N(CCC(N)=O)NC(=O)[C@H](Cc1ccccc1)NC(=O)[C@H](CC(C)C)NC(=O)OCc1ccccc1 [Cbz-Leu-Phe-AGln-(2S, 3S)-EP-COOEt, (2S,3S)-3-(N^2-(N-Benzyloxycarbonylleucylphenylalanyl)-N^1-carbamoylethylhydrazinocarbonyl)oxirane-2-carboxylic Acid Ethyl Ester] | 4.73 | – | – | –
